# Measurements: ChEMBL document CHEMBL5537125, “Discovery of C-3 isoxazole substituted thiochromone S,S-dioxide derivatives as potent and selective inhibitors for monoamine oxidase B (MAO-B)” (Eur J Med Chem, 2024)
# The source made the active and inactive calls. No cut-off for these calls is given here.
# Experiments:
# [1] = biological target: T1, Amine oxidase [flavin-containing] B (Homo sapiens, UniProt P27338); assay: Inhibition of human recombinant MAO-B using tyramine as substrate incubated for 20 mins by fluorometric assay
# T1 sequence (P27338 whole entry): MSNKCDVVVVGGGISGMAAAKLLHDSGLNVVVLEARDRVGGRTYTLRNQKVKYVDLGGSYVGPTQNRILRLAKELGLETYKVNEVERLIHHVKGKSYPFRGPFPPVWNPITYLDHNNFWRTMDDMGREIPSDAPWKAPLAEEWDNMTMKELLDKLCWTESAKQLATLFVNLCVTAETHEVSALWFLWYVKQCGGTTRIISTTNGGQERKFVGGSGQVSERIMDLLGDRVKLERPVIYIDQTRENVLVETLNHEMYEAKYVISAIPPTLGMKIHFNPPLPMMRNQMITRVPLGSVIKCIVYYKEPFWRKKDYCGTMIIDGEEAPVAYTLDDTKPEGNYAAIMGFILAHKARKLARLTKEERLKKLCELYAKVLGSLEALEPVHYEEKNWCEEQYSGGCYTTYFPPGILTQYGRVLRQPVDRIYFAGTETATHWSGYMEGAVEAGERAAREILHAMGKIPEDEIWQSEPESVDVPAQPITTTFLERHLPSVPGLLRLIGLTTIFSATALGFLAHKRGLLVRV
# [2] = n-Octanol/water partition coefficient, logP of the compound at pH 7.4 by HPLC analysis; assay type: physicochemical
# Homo sapiens = species on record: Homo sapiens; assay: Selectivity index, ratio of IC50 for human recombinant MAO-A to IC50 for human recombinant MAO-B
# [3] = Solubility of compound in DMSO; assay type: physicochemical
# [4] = Solubility of compound in phosphate buffer; assay type: physicochemical
# [5] = biological target: T2, Amine oxidase [flavin-containing] A (Homo sapiens, UniProt P21397); assay: Inhibition of human recombinant MAO-A using tyramine as substrate at 10 uM incubated for 20 mins by fluorometric assay relative to control
# T2 sequence (P21397 whole entry): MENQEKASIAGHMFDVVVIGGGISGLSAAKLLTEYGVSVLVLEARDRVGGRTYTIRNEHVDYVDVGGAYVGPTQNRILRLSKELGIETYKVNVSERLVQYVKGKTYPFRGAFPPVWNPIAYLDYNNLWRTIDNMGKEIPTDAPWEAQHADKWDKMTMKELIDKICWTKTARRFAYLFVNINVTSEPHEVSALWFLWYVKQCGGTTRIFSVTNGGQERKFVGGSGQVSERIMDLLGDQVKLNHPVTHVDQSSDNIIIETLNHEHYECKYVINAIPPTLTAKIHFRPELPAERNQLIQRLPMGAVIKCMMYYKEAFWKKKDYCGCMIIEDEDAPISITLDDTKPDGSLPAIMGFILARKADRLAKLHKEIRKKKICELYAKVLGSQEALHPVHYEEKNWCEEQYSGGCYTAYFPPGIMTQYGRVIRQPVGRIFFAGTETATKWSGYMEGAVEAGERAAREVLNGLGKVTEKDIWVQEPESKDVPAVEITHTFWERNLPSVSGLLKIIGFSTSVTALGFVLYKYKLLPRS
# MCF7 = assay: Antiproliferative activity against human MCF7 cells assessed as reduction in cell viability incubated for 24 hrs by MTT assay; assay type: functional, cell-based; settings: MCF7, 24 h
# HCT-116 = assay: Antiproliferative activity against human HCT-116 cells assessed as reduction in cell viability incubated for 24 hrs by MTT assay; assay type: functional, cell-based; settings: HCT-116, 24 h
# HepG2 [6] = assay: Antiproliferative activity against human HepG2 cells assessed as reduction in cell viability incubated for 24 hrs by MTT assay; assay type: functional, cell-based; settings: HepG2, 24 h
# MGC-803 [7] = assay: Antiproliferative activity against human MGC-803 cells assessed as reduction in cell viability incubated for 24 hrs by MTT assay; assay type: functional, cell-based; settings: MGC-803, 24 h
# SH-SY5Y [8] = assay: Cytotoxicity against differentiated human SH-SY5Y cells assessed as reduction in cell viability by measuring MTT reduction at 4 uM incubated for 24 hrs by MTT assay relative to control; assay type: toxicity, cell-based
# SH-SY5Y [9] = assay: Induction of ROS production in human SH-SY5Y cells assessed as increase in oxidative damage at 2 to 4 uM incubated for 24 hrs by DCFH-DA staining based fluorescence microscopic analysis; assay type: functional, cell-based; settings: dose 2-4 µM
# VSMC [10] = assay: Cytotoxicity against human VSMC cells assessed as reduction in cell viability at 0.5 uM incubated for 24 hrs by MTT assay relative to control; assay type: toxicity, cell-based
# VSMC [11] = assay: Cytotoxicity against differentiated human VSMC cells assessed as reduction in cell viability at 0.5 to 4 uM incubated for 24 hrs by MTT assay; assay type: toxicity, cell-based; settings: dose 0.5-4 µM
# [12] = biological target: T2, Amine oxidase [flavin-containing] A; assay: Inhibition of human recombinant MAO-A using tyramine as substrate incubated for 20 mins by fluorometric assay
# [13] = Cytotoxicity against differentiated human SH-SY5Y cells assessed as cell proliferation at 0.5 uM incubated for 24 hrs by MTT assay relative to control; assay type: toxicity, cell-based; settings: read-out: Activity
# [14] = Cytotoxicity against differentiated human SH-SY5Y cells assessed as cell proliferation at 4 uM incubated for 24 hrs by MTT assay relative to control; assay type: toxicity, cell-based; settings: read-out: Activity
# HepG2 [15] = assay: Antiproliferative activity against human HepG2 cells assessed as reduction in cell viability at 0.5 to 128 uM incubated for 24 hrs by MTT assay; assay type: functional, cell-based; settings: dose 0.5-128 µM
# MGC-803 [16] = assay: Antiproliferative activity against human MGC-803 cells assessed as reduction in cell viability at 0.5 to 128 uM incubated for 24 hrs by MTT assay; assay type: functional, cell-based; settings: dose 0.5-128 µM
# [17] = biological target: T1, Amine oxidase [flavin-containing] B; assay: Inhibition of human MAO-B
# [18] = Selectivity index, ratio of IC50 for MAO-A (unknown origin) to IC50 for human recombinant MAO-B
smiles,measurement,setting,value
O=C1C(c2cc(-c3cccc(Cl)c3)no2)=CS(=O)(=O)c2ccccc21,IC50,[1],0.0226 µM
same,logD,[2],4.17
Cc1ccc(C2=NOC(c3ccc(Cl)c(Cl)c3)C2)cc1 (stereo unspecified),Ratio IC50,Homo sapiens,> 8350
O=c1c(-c2cc(-c3cccc(F)c3)no2)csc2ccccc12,solubility,[3],Insoluble
same,solubility,[4],Insoluble
O=C1C(c2cc(-c3ccc(C(F)(F)F)cc3)no2)=CS(=O)(=O)c2ccccc21,IC50,[1],0.0318 µM
same,logD,[2],2.37
same,inhibition at 10 µM,[5],2.6%
O=C1C(c2cc(-c3cccc(C(F)(F)F)c3)no2)=CS(=O)(=O)c2ccccc21,IC50,[1],0.0019 µM
same,logD,[2],3.39
same,inhibition at 10 µM,[5],10%
same,IC50,MCF7,5.82 µM
same,IC50,HCT-116,21.4 µM
same,IC50,HepG2 [6],83.2 µM
same,IC50,MGC-803 [7],39.6 µM
same,Activity,SH-SY5Y [8],< 90%
same,Activity,SH-SY5Y [9],inactive
same,Activity,VSMC [10],113%
same,Activity,VSMC [11],Non-Toxic
COc1ccc(-c2cc(-c3csc4ccccc4c3=O)on2)cc1,solubility,[3],Insoluble
same,solubility,[4],Insoluble
O=c1c(-c2cc(-c3ccc(F)cc3)no2)csc2ccccc12,solubility,[3],Insoluble
same,solubility,[4],Insoluble
COc1cccc(-c2cc(-c3csc4ccccc4c3=O)on2)c1,solubility,[3],Insoluble
same,solubility,[4],Insoluble
O=c1c(-c2cc(-c3ccccc3)no2)csc2ccccc12,IC50,[1],1.23 µM
same,logD,[2],3.72
O=C1C(c2cc(-c3ccccc3)no2)=CS(=O)(=O)c2ccccc21,IC50,[1],0.896 µM
same,logD,[2],3.26
O=C1C(c2cc(-c3ccc(F)cc3)no2)=CS(=O)(=O)c2ccccc21,IC50,[1],0.149 µM
same,logD,[2],2.43
O=c1c(-c2cc(-c3ccc(C(F)(F)F)cc3)no2)csc2ccccc12,IC50,[1],0.0113 µM
same,IC50,[12],85.4 µM
same,Ratio IC50,Homo sapiens,7580
same,logD,[2],2.55
O=c1c(-c2cc(-c3cccc(Cl)c3)no2)csc2ccccc12,solubility,[3],Insoluble
same,solubility,[4],Insoluble
COc1ccc(-c2cc(-c3csc4ccccc4c3=O)[nH]n2)cc1,IC50,[1],0.0185 µM
same,logD,[2],3.43
O=c1c(-c2cc(-c3cccc(C(F)(F)F)c3)no2)csc2ccccc12,IC50,[1],0.0351 µM
same,IC50,[12],161 µM
same,Ratio IC50,Homo sapiens,4580
same,logD,[2],3.71
O=C1C(c2cc(-c3cccc(F)c3)no2)=CS(=O)(=O)c2ccccc21,IC50,[1],0.44 µM
same,logD,[2],2.46
O=C1C(c2cc(-c3ccccc3C(F)(F)F)no2)=CS(=O)(=O)c2ccccc21,IC50,[1],0.0023 µM
same,logD,[2],2.63
same,inhibition at 10 µM,[5],3.8%
same,IC50,MCF7,16 µM
same,IC50,HCT-116,52.1 µM
same,IC50,HepG2 [6],99.3 µM
same,IC50,MGC-803 [7],37.7 µM
same,Activity,SH-SY5Y [8],< 90%
same,"viability at 24 h, 0.5 µM",[13],108%
same,Activity,VSMC [11],Non-Toxic
same,"viability at 24 h, 4 µM",[14],119%
O=c1c(-c2cc(-c3ccccc3C(F)(F)F)no2)csc2ccccc12,IC50,[1],0.002 µM
same,IC50,[12],21.2 µM
same,logD,[2],4.37
same,IC50,MCF7,37.9 µM
same,Activity,SH-SY5Y [8],< 90%
same,Activity,VSMC [11],Non-Toxic
same,Activity,HepG2 [15],inactive
same,Activity,MGC-803 [16],inactive
same,"viability at 24 h, 4 µM",[14],121%
Cc1ccc(-c2cc(C3=CS(=O)(=O)c4ccccc4C3=O)on2)cc1,IC50,[1],0.0268 µM
same,logD,[2],2.77
COc1ccc(-c2cc(C3=CS(=O)(=O)c4ccccc4C3=O)on2)cc1,IC50,[1],0.0034 µM
same,IC50,[12],64.4 µM
same,logD,[2],2.62
same,IC50,MCF7,6.02 µM
same,IC50,HCT-116,78.1 µM
same,IC50,HepG2 [6],63.1 µM
same,Activity,SH-SY5Y [8],< 90%
same,"viability at 24 h, 0.5 µM",[13],105%
same,Activity,VSMC [11],Non-Toxic
same,Activity,MGC-803 [16],inactive
same,"viability at 24 h, 4 µM",[14],120%
CC(=O)c1ccc(OCc2ccccc2)cc1O,IC50,[17],0.007 µM
same,Ratio IC50,[18],1190
Cc1cccc(-c2cc(-c3csc4ccccc4c3=O)on2)c1,IC50,[1],0.53 µM
same,logD,[2],3.44
COc1cccc(-c2cc(C3=CS(=O)(=O)c4ccccc4C3=O)on2)c1,IC50,[1],0.0051 µM
same,logD,[2],2.39
same,inhibition at 10 µM,[5],1%
same,IC50,MCF7,4.21 µM
same,IC50,HCT-116,47 µM
same,IC50,HepG2 [6],43.3 µM
same,IC50,MGC-803 [7],43 µM
same,Activity,SH-SY5Y [9],inactive
same,Activity,VSMC [10],111%
same,Activity,VSMC [11],Non-Toxic
Cc1cccc(-c2cc(C3=CS(=O)(=O)c4ccccc4C3=O)on2)c1,IC50,[1],0.0982 µM
same,logD,[2],3.23
O=c1c(-c2cc(-c3ccc(Cl)cc3)no2)csc2ccccc12,solubility,[3],Insoluble
same,solubility,[4],Insoluble
O=C1C(c2cc(-c3ccc(Cl)cc3)no2)=CS(=O)(=O)c2ccccc21,IC50,[1],0.0034 µM
same,IC50,[12],38.3 µM
same,logD,[2],1.82
same,IC50,MCF7,3.77 µM
same,IC50,HCT-116,53.4 µM
same,IC50,HepG2 [6],55.9 µM
same,Activity,SH-SY5Y [8],< 90%
same,Activity,VSMC [11],Non-Toxic
same,Activity,MGC-803 [16],inactive
Cc1ccccc1-c1cc(-c2csc3ccccc3c2=O)on1,IC50,[1],0.109 µM
same,logD,[2],3.99
Cc1ccc(-c2cc(-c3csc4ccccc4c3=O)on2)cc1,IC50,[1],0.0622 µM
same,logD,[2],3.2
Cc1ccccc1-c1cc(C2=CS(=O)(=O)c3ccccc3C2=O)on1,IC50,[1],0.137 µM
same,logD,[2],2.69
